Reference: US20240239861A1, “GLUCAGON-RECEPTOR SELECTIVE POLYPEPTIDES AND METHODS OF USE THEREOF” (i2O Therapeutics, Inc., priority 2016, published 2024)
Entries after “also recorded” stand apart in the source; their conditions may differ. Like-named read-outs stand apart in the source and are kept apart here. Where a SMILES comes first, the peptide text is derived from it. Bridges are numbered along the chain shown (N, C = ends). [ ]: non-standard residue; d: D form. Aib = CC(C)(N)C(=O)O

Assays:
[1] = molecular target: human GCGR (Homo sapiens, UniProt P47871); experiment: Peptide-receptor mediated cAMP accumulation (LANCE Ultra cAMP) in CHO-K1 cells transfected with human GCGR; type: cell-based; settings: for hGCGR pEC50 (cAMP mean (n = 3): 11 point curve starting at 1 nM): Table 3
Chain of human GCGR (P47871 26-477): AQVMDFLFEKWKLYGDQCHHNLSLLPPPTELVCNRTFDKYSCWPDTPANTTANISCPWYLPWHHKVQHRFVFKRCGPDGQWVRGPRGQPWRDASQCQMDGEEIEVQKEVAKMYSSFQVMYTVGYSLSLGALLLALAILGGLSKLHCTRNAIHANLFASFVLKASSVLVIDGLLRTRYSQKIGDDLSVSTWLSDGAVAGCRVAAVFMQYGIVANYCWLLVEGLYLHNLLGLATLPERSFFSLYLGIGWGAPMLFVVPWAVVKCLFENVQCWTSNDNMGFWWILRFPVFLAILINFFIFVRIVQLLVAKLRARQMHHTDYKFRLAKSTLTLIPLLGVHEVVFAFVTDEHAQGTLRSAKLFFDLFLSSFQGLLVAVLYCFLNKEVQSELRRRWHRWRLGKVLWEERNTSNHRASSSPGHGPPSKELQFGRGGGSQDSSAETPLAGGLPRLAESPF

[2] = FIGURE 2B
[3] = Body weight change in DIO Long Evans rats after 13 days continuous dosing by osmotic pump; settings: for weight loss compared to vehicle control after 13 days: DIO LE rats, single agent
Method: Rats were 15-17 weeks old at the start of the study. The rats were housed 1 per cage and given ad libitum access to high fat diet (Harlan TD.95217, 4.3 kcal/g) and water, maintained on a 12 hr light/dark cycle from 5:00 AM to 5:00 PM at 21° C. and 50% relative humidity and allowed to acclimate for at least 10 days prior to the surgeries. Baseline fat mass and non-fat mass measurements were taken 3 days before the start of peptide infusion using a QMR instrument (Echo Medical Systems, Houston, TX). Body weight measurements were taken 2 times/week starting three days before the surgery. Rats were randomized according to their percent body fat mass and/or body weight into the various treatment groups (n=4-6 rats/group). […] On the day of surgery, rats were anesthetized under isoflurane and the dorsal skin surface was shaved and cleansed. Rats were injected SC with Flunexin (2.5 mg/kg). A 1-2 cm surgical incision was made between the scapulae. Using blunt dissection, a 2-3 cm subcutaneous tunnel was created into which the sterile, filled, mini-osmotic pump was introduced. The skin opening was closed with a skin staple. Each rat was implanted with either one or two osmotic pumps containing vehicle or peptide according to their treatment group. All the data are presented as mean±SEM. The data were analyzed in Excel and/or Prism (GraphPad Software, Inc., La Jolla, CA) using one-way ANOVA to compare each group to the appropriate control group.

[4] = Steady state plasma concentrations of glucagon analogs given subcutaneously by osmotic minipump; type: in vivo, rat
[5] = 3-hour intravenous infusion pharmacokinetics, peptide clearance (CL); settings: male, rat, in vivo
[6] = Clearance at intravenous infusion rate of 10 mcg/kg/hr
[7] = Stability in water or saline at 37° C. and room temperature, 30 days, LC/MS and HPLC purity; type: physicochemical
Excerpt: Samples were withdrawn at a regular interval for 30 days and analyzed by LC/MS and HPLC for determination of purity and mass of the degradation product.

[8] = molecular target: human GLP-1R (Homo sapiens, UniProt P43220); experiment: Peptide-receptor mediated cAMP accumulation (LANCE Ultra cAMP) in CHO-K1 cells transfected with human GLP-1R; type: cell-based
Chain of human GLP-1R (P43220 24-463): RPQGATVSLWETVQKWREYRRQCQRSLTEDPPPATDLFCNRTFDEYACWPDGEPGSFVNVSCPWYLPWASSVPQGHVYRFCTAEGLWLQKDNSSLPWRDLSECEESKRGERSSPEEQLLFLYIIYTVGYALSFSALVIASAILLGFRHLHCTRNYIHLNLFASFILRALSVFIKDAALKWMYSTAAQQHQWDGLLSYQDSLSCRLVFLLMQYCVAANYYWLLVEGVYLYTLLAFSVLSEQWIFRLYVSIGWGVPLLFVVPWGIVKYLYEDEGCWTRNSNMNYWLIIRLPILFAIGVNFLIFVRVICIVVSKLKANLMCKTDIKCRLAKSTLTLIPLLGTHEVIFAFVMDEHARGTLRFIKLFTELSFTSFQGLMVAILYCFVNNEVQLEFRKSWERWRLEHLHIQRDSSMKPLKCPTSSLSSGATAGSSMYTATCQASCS

[9] = Solubility in water or saline at room temperature, visual inspection; type: physicochemical
Excerpt: Samples were visually inspected for clarity of the sample, any appearance of turbidity or haziness.

[10] = in vivo; settings: male, rat
[11] = Intravenous bolus injection pharmacokinetics, clearance (CL), cyclic peptide glucagon analogs; settings: rat, in vivo; male Wistar Han rats, single iv bolus 0.1 mg/kg; read-out: IV Bolus Clearance Kidney (CL)
Method: Peptides were administered as a single intravenous bolus dose to non-fasted male Wistar Han rats (n=3 per group) via jugular vein cannula. Compounds were formulated as solutions in either sterile saline, acidified saline (pH 2.0 or 4.5), or 5% DMSO in water and administered at a volume of 1.5 mL/kg and a final dose of 0.1 mg/kg. […] Plasma was prepared by centrifugation and stored at −80° C. until analysis.
Protein Precipitation: All 96-well plates were coated with a blocking agent to mitigate non-specific binding of peptides. Plasma samples (75 uL) were added to a 96-well plate containing 200 uL of 2:1 ethanol:acetonitrile containing 0.1% TFA and mixed well via aspiration. Plates were capped, vortex-mixed and centrifuged. Supernatants (215 uL) were transferred to a clean 96-well plate, evaporated to dryness under nitrogen flow and then reconstituted in 75 μL of 20% acetonitrile in water containing 0.10% formic acid.
Solid-Phase Extraction: Samples were diluted 3-fold with 5% NH4OH (aq) and loaded onto an Oasis MAX microElution plate (Waters Corp, Milford, MA) that had been pre-conditioned with 200 uL each of methanol and 5% NH4OH (aq). […]
All calibration standards were prepared in control rat plasma containing K2EDTA and protease inhibitor cocktail. […] Peptides were quantified my monitoring one or more product ions produced from a multiply charged parent ion.

[12] = rat, in vivo, iv
Method: Animals were anesthetized with halothane during catheterization of right saphenous vein (for peptide infusions) and right femoral artery (for blood sampling and monitoring of arterial pressure). Colonic temperature was measured and controlled. […] Arterial samples were collected every 30 min into heparinized Natelson capillaries, the plasma separated on a bench-top centrifuge and then frozen at −20° C. until assay.

[13] = Table 3, % printed only in cells of A1-A6
[14] = hGLP1 pEC50 (cAMP mean (n = 3): 11 point curve starting at 1 nM, Table 3)
[15] = hGLP1 pEC50 (cAMP) mean (n = 9): 11 point curve starting at 500 uM, Table 2A
[16] = Table 3, room temperature, read-out: Solubility in water

With `CC(C)C[C@H](NC(=O)[C@H](Cc1ccc(O)cc1)NC(=O)[C@H](CCCCN)NC(=O)[C@H](CO)NC(=O)[C@H](Cc1ccc(O)cc1)NC(=O)[C@H](CC(=O)O)NC(=O)[C@H](CO)NC(=O)[C@@H](NC(=O)[C@H](Cc1ccccc1)NC(=O)[C@@H](NC(=O)CNC(=O)[C@H](Cc1c[nH]cn1)NC(=O)[C@H](CO)NC(=O)[C@@H](N)Cc1ccc(O)cc1)[C@@H](C)O)[C@@H](C)O)C(=O)N[C@@H](CC(=O)O)C(=O)NC(C)(C)C(=O)N[C@@H](CCCCN)C(=O)N[C@@H](CO)C(=O)N[C@@H](C)C(=O)N[C@@H](CCC(N)=O)C(=O)N[C@@H](CCC(=O)O)C(=O)N[C@@H](Cc1ccccc1)C(=O)N[C@H](C(=O)NC(C)(C)C(=O)N[C@@H](Cc1c[nH]c2ccccc12)C(=O)N[C@@H](CC(C)C)C(=O)N[C@@H](CCC(=O)O)C(=O)N[C@@H](CC(=O)O)C(=O)N[C@@H](CCC(=O)O)C(=O)N1CCC[C@H]1C(=O)N[C@@H](CO)C(=O)N[C@@H](CO)C(=O)NCC(=O)N[C@@H](C)C(=O)N1CCC[C@H]1C(=O)N1CCC[C@H]1C(=O)N1CCC[C@H]1C(=O)N[C@@H](CO)C(=O)O)C(C)C` [Compound A2] the EC50 [1] was 2 pM, the “activation profile at the human glucagon receptor (GCGR)” value ([1]; FIG. 1A) was “nearly equipotent on GCGR” and the “hGCGR pEC50 (cAMP mean (n = 3): 11 point curve starting at 1 nM)” value (from here on “hGCGR pEC50”) [1] was 11.7. The “CL” value [2] was 12.3 ± 0.6 mL/min/kg, the “weight loss compared to vehicle control after 13 days” value ([3]; 0.01 mg/kg/day) was 3.7% and the “weight loss compared to vehicle control after 13 days” value ([3]; 0.03 mg/kg/day) was 3.9%. For the same compound, the “weight loss compared to vehicle control after 13 days” value ([3]; 0.1 mg/kg/day) was 8.6%, the “weight loss compared to vehicle control after 13 days” value ([3]; 0.3 mg/kg/day) was 23.7% and the “ED50 of weight loss” value ([3]; DIO rats, 13 days infusion, fits sharing vehicle response and common maximum (FIG. 9)) was 271 µg/kg/day. The “common maximal weight loss response” value ([3]; over 13 days, fits constrained to share it (FIG. 9)) was 27.2%, the mode of clearance ([4]; FIG. 6, steady state plasma concentration vs inulin/GFR) was “consistent with being via glomerular filtration; also recorded: cleared mainly by glomerular filtration” and the subcutaneous bioavailability ([4]; sc osmotic minipump, rat) was “high”. For the same compound, the clearance [5] was 10.8 mL/min/kg, the “clearance compared with exenatide and glucagon” value ([6]; FIG. 7) was “less than that of exenatide and glucagon” and the mode of clearance ([6]; FIG. 7, Table 5 values close to GFR) was “cleared from plasma via glomerular filtration”. The “CL” value ([6]; Table 5, intravenous infusion rate 10 mcg/kg/hr, rat) was 11.3 mL/min/kg, the clearance ([6]; rat, in vivo, iv, 10 mcg/kg/hr, CL mL/min/kg, Table 5, intravenous infusion rate 10 mcg/kg/hr) was 10.8 mL/min/kg and the “Stability 1 mg/ml in water at 37 degC” value [7, 13] was >84%. The “activation profile at the human GLP-1 receptor (GLP-1R)” value ([8]; FIG. 1B) was “inactive on GLP-1R”, the EC50 [8, 14] was 3.98 µM and the EC50 [8, 15] was 3.98 µM. The solubility [9, 16] was > 200 mg/mL.
For `CC[C@H](C)[C@H](NC(=O)[C@@H](NC(=O)[C@H](Cc1ccccc1)NC(=O)[C@H](CCC(=O)O)NC(=O)[C@H](CCC(N)=O)NC(=O)[C@H](C)NC(=O)[C@H](CCCNC(=N)N)NC(=O)[C@H](CCCCN)NC(=O)C(C)(C)NC(=O)[C@H](CC(=O)O)NC(=O)[C@H](CC(C)C)NC(=O)[C@H](Cc1ccc(O)cc1)NC(=O)[C@H](CCCCN)NC(=O)[C@H](CO)NC(=O)[C@H](Cc1ccc(O)cc1)NC(=O)[C@H](CC(=O)O)NC(=O)[C@H](CO)NC(=O)[C@@H](NC(=O)[C@H](Cc1ccccc1)NC(=O)[C@@H](NC(=O)CNC(=O)[C@H](Cc1c[nH]cn1)NC(=O)[C@H](CO)NC(=O)[C@@H](N)Cc1ccc(O)cc1)[C@@H](C)O)[C@@H](C)O)C(C)C)C(=O)N[C@@H](Cc1c[nH]c2ccccc12)C(=O)N[C@@H](CC(C)C)C(=O)N[C@@H](CCC(=O)O)C(=O)N[C@@H](CC(=O)O)C(=O)N[C@@H](CCC(=O)O)C(=O)N1CCC[C@H]1C(=O)N[C@@H](CO)C(=O)N[C@@H](CO)C(=O)NCC(=O)N[C@@H](C)C(=O)N1CCC[C@H]1C(=O)N1CCC[C@H]1C(=O)N1CCC[C@H]1C(=O)N[C@@H](CO)C(=O)O` [Compound A4], the EC50 [1] was 1.58 pM, the “hGCGR pEC50” value [1] was 11.8 and the “CL” value [2] was 15.0 ± 0.7 mL/min/kg. For the same compound, the clearance [5] was 12.6 mL/min/kg, the “Stability 1 mg/ml in water at 37 degC” value [7, 13] was >81% and the EC50 [8, 14] was > 10 µM. The EC50 [8, 15] was > 10 µM and the solubility [9, 16] was > 200 mg/mL.
With `CC(C)C[C@H](NC(=O)[C@H](Cc1ccc(O)cc1)NC(=O)[C@H](CCCCN)NC(=O)[C@H](CO)NC(=O)[C@H](Cc1ccc(O)cc1)NC(=O)[C@H](CC(=O)O)NC(=O)[C@H](CO)NC(=O)[C@@H](NC(=O)[C@H](Cc1ccccc1)NC(=O)[C@@H](NC(=O)CNC(=O)[C@H](CCC(N)=O)NC(=O)[C@H](CO)NC(=O)[C@@H](N)Cc1c[nH]c2ccccc12)[C@@H](C)O)[C@@H](C)O)C(=O)N[C@@H](CC(=O)O)C(=O)NC(C)(C)C(=O)N[C@@H](CCCCN)C(=O)N[C@@H](CCCNC(=N)N)C(=O)N[C@@H](C)C(=O)N[C@@H](CCC(N)=O)C(=O)N[C@@H](CCC(=O)O)C(=O)N[C@@H](Cc1ccccc1)C(=O)N[C@H](C(=O)NC(C)(C)C(=O)N[C@@H](Cc1c[nH]c2ccccc12)C(=O)N[C@@H](CC(C)C)C(=O)N[C@@H](CCC(=O)O)C(=O)N[C@@H](CC(=O)O)C(=O)N[C@@H](CCC(=O)O)C(=O)N1CCC[C@H]1C(=O)N[C@@H](CO)C(=O)N[C@@H](CO)C(=O)NCC(=O)N[C@@H](C)C(=O)N1CCC[C@H]1C(=O)N1CCC[C@H]1C(=O)N1CCC[C@H]1C(=O)N[C@@H](CO)C(=O)O)C(C)C` [Compound A6] (H-WSQGTFTSDYSKYLD[Aib]KRAQEFV[Aib]WLEDEPSSGAPPPS-OH; N-terminus assumed) the EC50 ([1]; Table 2A) was 2 pM, the “hGCGR pEC50” value [1] was 11.7 and the “CL” value [2] was 9.2 ± 0.2 mL/min/kg. The clearance [10] was 12.4 mL/min/kg, the “Stability 1 mg/ml in water at 37 degC” value [7] was >80% and the EC50 [8, 14] was 5.01 µM. For the same compound, the EC50 [8, 15] was 5.01 µM and the solubility ([9]; Solubility in water mg/ml) was > 200 mg/mL.
For `CC(C)C[C@H](NC(=O)[C@H](Cc1ccc(O)cc1)NC(=O)[C@H](CCCCN)NC(=O)[C@H](CO)NC(=O)[C@H](Cc1ccc(O)cc1)NC(=O)[C@H](CC(=O)O)NC(=O)[C@H](CO)NC(=O)[C@@H](NC(=O)[C@H](Cc1ccccc1)NC(=O)[C@@H](NC(=O)CNC(=O)[C@H](CCC(N)=O)NC(=O)[C@H](CO)NC(=O)[C@@H](N)Cc1ccc(O)cc1)[C@@H](C)O)[C@@H](C)O)C(=O)N[C@@H](CC(=O)O)C(=O)N[C@@H](CO)C(=O)N[C@H]1CCCCNC(=O)CC[C@@H](C(=O)N[C@@H](Cc2ccccc2)C(=O)N[C@H](C(=O)N[C@H]2CCCCNC(=O)CC[C@@H](C(=O)N[C@H](C(=O)O)[C@@H](C)O)NC(=O)[C@H](CC(=O)O)NC(=O)[C@H](CC(C)C)NC(=O)[C@H](Cc3c[nH]c4ccccc34)NC2=O)C(C)C)NC(=O)[C@H](CCC(N)=O)NC(=O)[C@H](C)NC(=O)[C@H](CCCNC(=N)N)NC1=O` [Compound A104] (H-YSQGTFTSDYSKYLDSKRAQEFVKWLDET-OH; lactam 17-21, 24-28), the clearance [11] was 80.7 ± 15.4 mL/min/kg.
For `CC(C)C[C@H](NC(=O)[C@H](Cc1ccc(O)cc1)NC(=O)[C@H](CCCCN)NC(=O)[C@H](CO)NC(=O)[C@H](Cc1ccc(O)cc1)NC(=O)[C@H](CC(=O)O)NC(=O)[C@H](CO)NC(=O)[C@@H](NC(=O)[C@H](Cc1ccccc1)NC(=O)[C@@H](NC(=O)CNC(=O)[C@H](CCC(N)=O)NC(=O)[C@H](CO)NC(=O)[C@@H](N)Cc1ccc(O)cc1)[C@@H](C)O)[C@@H](C)O)C(=O)N[C@@H](CC(=O)O)C(=O)N[C@@H](CO)C(=O)N[C@H]1CCCCNC(=O)CC[C@@H](C(=O)N[C@@H](Cc2ccccc2)C(=O)N[C@H](C(=O)N[C@H]2CCCCNC(=O)CC[C@@H](C(=O)N[C@H](C(=O)O)[C@@H](C)O)NC(=O)[C@H](CCC(N)=O)NC(=O)[C@H](CC(C)C)NC(=O)[C@H](Cc3c[nH]c4ccccc34)NC2=O)C(C)C)NC(=O)[C@H](CCC(N)=O)NC(=O)[C@H](C)NC(=O)[C@H](CCCNC(=N)N)NC1=O` [Compound A105] (H-YSQGTFTSDYSKYLDSKRAQEFVKWLQET-OH; lactam 17-21, 24-28), the clearance [11] was 67 ± 7.3 mL/min/kg.
With “GLP-1: glucagon-like peptide-1; infused as GLP-1-(7-36)amide in Example 13” the Plasma clearance rates [12] was 34±4 to 38±3.
